Source: patent publication US12691101B2, “Compound and method for preventing or treating of respiratory diseases comprising the same as an active ingredient” (YONSEI UNIVERSITY, UNIVERSITY - INDUSTRY FOUNDATION (UIF), priority 2019, dated 2026)
Entries after “also recorded” stand apart in the source; their conditions may differ. Where two headings read alike, the source gives them in different places.

Legend:
[1] = biological target: T1, human wild-type (WT)-pendrin (Homo sapiens, UniProt O43511); experiment: Pendrin-mediated Cl^−/I^− exchange activity, YFP fluorescence in CHO-K1 cells; type: cell-based; conditions: for inhibition at 30 µM: CHO-K1, 30 μM, read-out: Pendrin inhibitory activity at 30 μM (%); for inhibition of pendrin Cl^−/I^− exchange activity: CHO-K1 cells, pretreated 10 minutes
T1 construct: expressed in transfected cells
T1 sequence (O43511 1-780): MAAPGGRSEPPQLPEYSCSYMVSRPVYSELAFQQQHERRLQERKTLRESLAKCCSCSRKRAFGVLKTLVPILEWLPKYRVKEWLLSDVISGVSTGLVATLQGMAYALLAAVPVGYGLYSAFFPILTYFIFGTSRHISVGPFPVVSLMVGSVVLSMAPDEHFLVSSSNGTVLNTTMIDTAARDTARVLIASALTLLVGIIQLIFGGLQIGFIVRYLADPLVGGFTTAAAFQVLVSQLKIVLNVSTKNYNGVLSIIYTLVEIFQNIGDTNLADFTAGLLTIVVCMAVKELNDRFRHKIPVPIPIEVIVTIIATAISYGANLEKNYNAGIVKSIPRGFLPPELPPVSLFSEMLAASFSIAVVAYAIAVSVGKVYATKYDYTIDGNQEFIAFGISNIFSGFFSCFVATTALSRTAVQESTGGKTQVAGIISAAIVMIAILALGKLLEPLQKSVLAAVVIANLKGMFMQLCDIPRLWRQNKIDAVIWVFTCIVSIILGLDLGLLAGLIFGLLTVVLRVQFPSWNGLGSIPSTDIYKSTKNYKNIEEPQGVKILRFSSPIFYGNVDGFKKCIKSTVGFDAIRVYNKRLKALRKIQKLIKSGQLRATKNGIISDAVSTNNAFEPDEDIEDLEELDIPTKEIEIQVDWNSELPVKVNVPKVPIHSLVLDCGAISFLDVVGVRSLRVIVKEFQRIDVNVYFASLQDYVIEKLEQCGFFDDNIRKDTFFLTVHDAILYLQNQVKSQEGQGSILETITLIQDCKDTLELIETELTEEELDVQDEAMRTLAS

[2] = tested on: NIH3T3 cells; experiment: Cell viability, MTS colorimetric analysis, NIH3T3; type: cell-based; conditions: 24 hours, up to 30 μM
Protocol: (A) Pendrin-mediated Cl^−/I^− exchange activity (mean±S.E., n=5). The indicated concentration of F56 was pretreated for 10 minutes. (B, C) Representative tracing of intracellular pH. The application of Cl^− free solution induced intracellular alkalization through pendrin-mediated Cl^−/HCO3^− and Cl^−/OH^− exchange activity. The indicated concentration of F56 was pretreated for 10 minutes. (D-F) The pendrin-mediated Cl^−/I^− exchange activity was measured in CHO-K1 cells expressing human pendrin. The indicated concentration of F56, PDSinh-A01 and PDSinh-C01 was pretreated for 10 minutes. (G) Summary of dose-response of F56, PDSinh-A01 and PDSinh-C01 (mean±S.E., n=3). (H, I) Effect of F56, PDSinh-A01 and PDSinh-C01 on the cell viability in NIH3T3 (H) and CHO-K1 (I) cells. The cells were treated with F56, PDSinh-A01 and PDSinh-C01 for 24 hours. The cell viability was measured by MTS colorimetric analysis (mean±S.E., n=3). NTC, non-transfected cells.
The cells were treated with F10 for 24 hours. The cell viability was determined by MTS colorimetric analysis (mean±S.E., n=3).

[3] = compounds showing pendrin inhibitory activity of 50% or more at 30 μM, read-out: IC50

| Compound | inhibition at 30 µM [1] [%] | inhibition of pendrin Cl^−/I^− exchange activity [1] | IC50 ([1]; FIG. 4(a), read-out: 50% inhibition of Cl^−/I^− exchange activity) [nM] | IC50 [1, 3] [nM] | cytotoxicity in NIH3T3 cells [2] | IC50 ([1]; FIG. 4(b), read-out: inhibitory effect on the Cl—/I— exchange activity: IC50) [nM] |
| --- | --- | --- | --- | --- | --- | --- |
| CC(C)(C)c1ccc(C2=NC(=Cc3cccs3)C(=O)O2)cc1 [F56, 2-(4-(tert-butyl)phenyl)-4-(thiophen-2-ylmethylene)oxazol-5(4H)-one] | 84.7 | significantly inhibited; also recorded: strongly inhibited | ~3000 | 3300 ± 640 | did not show cytotoxicity up to 30 μM | – |
| CC(C)(C)c1ccc(C2=NC(=Cc3ccc[nH]3)C(=O)O2)cc1 [F10, 4-((1H-pyrrol-2-yl)methylene)-2-(4-(tert-butyl)phenyl)oxazol-5 (4H)-one] | 100 | strongly inhibit | – | 80 ± 20 | did not show any cytotoxicity up to 30 μM | ~80 |
